Molecules are shown by their SMILES.

The melting point is the temperature, or range, at which the solid turns liquid. `c1cc2c3c(c1)c1c(n3CCNC2)CCC1` [Example 1, 1,2,3,4,9,10-Hexahydro-8H-cyclopenta[b][4,1]diazepino[6,7,1-hi]indole] yielded a melting point of 66 to 68 °C.
Then `CC(=O)N1CCN2c3c(cccc3C3CCCC32)C1` (racemic) [Example 3, 3-Acetyl-1,2,3,4,8,9,10,10a-octahydro-7bH-cyclopenta[b][1,4]diazepino[6,7,1-hi]indole], with 111 to 113 °C.

The values are drawn from patent US6784172B2, “Processes for preparation of cyclopenta[b][1,4]diazepino[6,7,1-hi]indoles and derivatives” (Wyeth, priority 2000, dated 2004).
